This is an account of results in publication PMC10746112, “Synthesis and Pro-Apoptotic Effects of Nitrovinylanthracenes and Related Compounds in Chronic Lymphocytic Leukaemia (CLL) and Burkitt’s Lymphoma (BL)” (Molecules, 2023).

Assay [1] relates to MDA-MB-231 human breast cancer cells. Nature of the assay: alamarBlue cell viability assay. Format: cell-based. As to conditions: eight concentrations 0.001–50 μM.
For another assay, the system named is HG-3 CLL cells. Nature of the assay: Annexin V/PI apoptotic assay (FACS). Format: cell-based. Conditions: 48 h. The protocol: (§1) The pro-apoptotic effects of the selected nitrovinylanthracene compounds 19a, 19g, 19i, 19l and 19m after 48 h were next determined using FITC (fluorescein isothiocyanate), Annexin V/PI (propidium iodide) staining and FACS (fluorescence-activated cell sorting) analysis to characterize the mode of cellular death induced. […] The CLL cells PGA1 and HG3 (1 × 10^6 cells/mL) were treated at 37 °C with either vehicle (1% (v/v) DMSO) or the nitrostyrene compounds 19a (10 μM, 5 μM and 1 μM) and 19g, 19i, 19l and 19m (10 μM and 1 μM) for 48 h. The cells were then harvested by centrifugation at 400× g in a temperature-controlled Sorvall centrifuge and rinsed with 0.5 mL of Ca^2+ Annexin-V-binding buffer (0.1 M HEPES, pH 7.4; 0.14 M NaCl; 25 mM CaCl2). The samples were resuspended in 50 µL FITC Annexin V (diluted 1:33 in Ca^2+ Annexin V-binding buffer), incubated on ice for 10 min (protected from light), washed with Annexin-V-binding buffer and re-suspended in 500 µL of propidium iodide (PI) solution (0.5 µg/mL). The samples were analysed within 1 h using a BD Accuri C6 flow cytometer counting 10,000 cells and analysed using the FlowJo software (FlowJo LLC, Ashland, OR, USA) package.

A further assay deals with PGA-1 CLL cells. The assay is described as follows: Annexin V/PI apoptotic assay (FACS). Format: cell-based. As to conditions: 48 h. The protocol:
as §1

The subject of assay [2] is MUTU-I Burkitt’s lymphoma cell line. As to conditions: read-out: IC50 MUTU-I; previous work; cited from earlier work.
Assay [3] relates to DG-75 Burkitt’s lymphoma cell line. Conditions: read-out: IC50 DG-75; previous work; cited from earlier work.
Assay [4] deals with MUTU-I Burkitt’s lymphoma cell line. The assay is described as follows: alamarBlue cell viability assay. As to conditions: MUTU-I; for viability at 1 µM / viability at 10 µM: 24 h; for viability at 1 µM: read-out: % Viable Cells Remaining MUTU-1, 1 µM, 24 h; for viability at 10 µM: read-out: % Viable Cells Remaining MUTU-1, 10 µM, 24 h. Background: Resazurin is reduced to fluorescent resorufin, in cell work by metabolically active cells.

In assay [5] the test system is DG-75 Burkitt’s lymphoma cell line. The assay is described as follows: alamarBlue cell viability assay. Conditions: Homo sapiens; for viability at 1 µM / viability at 10 µM: DG-75, 48 h; for viability at 1 µM: read-out: % Viable Cells Remaining DG-75, 1 µM, 48 h; for viability at 10 µM: read-out: % Viable Cells Remaining DG-75, 10 µM, 48 h.
Assay [6] relates to MCF-7 human breast cancer cells. The assay is described as follows: alamarBlue cell viability assay. Conditions: MCF7, read-out: MCF-7 IC50.
For another assay, the system named is HG-3 CLL cell line. The assay is described as follows: alamarBlue cell viability assay. Conditions: for viability at 10 µM / IC50: 24 h; for viability at 10 µM: read-out: % Viability HG-3, 10 µM, 24 h.
Another assay has as its system PGA-1 CLL cell line. The assay is described as follows: alamarBlue cell viability assay. Conditions: 24 h; for viability at 10 µM: read-out: % Viability PGA-1, 10 µM, 24 h.
Setting [7] is: CLL cell, read-out: HG-3 IC50, 24 h.
Setting [8] is: CLL cell, read-out: PGA-1 IC50, 24 h.

Where two headings read alike, the source gives them in different places.

With `O=[N+]([O-])/C=C/c1c2ccccc2cc2ccccc12` [Compound 19a, (E)-9-(2-nitrovinyl)anthracene], the IC50 (in general, the midpoint of a concentration-inhibition curve) in assay [1] is 3.82 µM; in assay [2] it was 3 µM; in [3] it was 1.5 µM; in [4] (read-out: IC50 MUTU-I), 2.57 µM; in assay [5] (DG-75, read-out: IC50 DG-75) it was 2.08 µM; in assay [6], 1.85 µM. The figures for the IC50 in the assay with HG-3 CLL cell line (setting [7]), with HG-3 CLL cell line (read-out: HG-3 IC50) and in the assay with PGA-1 CLL cell line (setting [8]) were 2.4 µM, 2.43 µM and 3.1 µM, respectively. Also, the total apoptosis in the assay on HG-3 CLL cells (HG-3, 1 μM) is listed as 21%; in the assay with HG-3 CLL cells (HG-3, 5 μM) it was 69%; with HG-3 CLL cells (HG-3, 10 μM) it was 93%; in the assay on PGA-1 CLL cells (PGA-1, 1 μM) it was 40%; in the assay on PGA-1 CLL cells (PGA-1, 5 μM), 67%; in the assay with PGA-1 CLL cells (PGA-1, 10 μM), 94%. The viability at 1 µM in [4] is 82.5%; in assay [5], 94.6%. In addition, the viability at 10 µM in assay [4] worked out at 5.91%; in assay [5], 14%; in the assay on HG-3 CLL cell line (CLL cell), 8%; in the assay with PGA-1 CLL cell line (CLL cell), 5.1%.

Consider `COc1c2ccccc2c(/C=C/[N+](=O)[O-])c2ccccc12` [Compound 19g], for which the IC50 in assay [1] was 3.78 µM; in assay [6], 5.31 µM; with HG-3 CLL cell line (setting [7]), 0.17 µM; in the assay on PGA-1 CLL cell line (setting [8]) it was 1.3 µM; in the assay with PGA-1 CLL cell line (read-out: PGA-1 IC50) it was 1.29 µM. Further, the total apoptosis with HG-3 CLL cells (HG-3, 1 μM) came to 11%; in the assay with HG-3 CLL cells (HG-3, 10 μM), 54%; in the assay on PGA-1 CLL cells (PGA-1, 10 μM), 52%. For the same compound, the viability at 1 µM in [4] was determined as 90.1%; in assay [5], 89.2%; in the assay with PGA-1 CLL cell line (CLL cell, read-out: % Viability PGA-1, 1 µM, 24 h) it was 43%. Moreover, the viability at 10 µM in assay [4] is 1.85%; in assay [5], 13.8%; in the assay with HG-3 CLL cell line (CLL cell), 0.5 to 8.3%; with PGA-1 CLL cell line (CLL cell), 1.21%. Further, the “fold greater response (IC50) in HG-3 compared to PGA-1 cells” value in the assay on HG-3 CLL cell line (ratio of IC50 values) was found to be 7.8 fold.

For the compound `Cc1c2ccccc2c(/C=C/[N+](=O)[O-])c2ccccc12` [Compound 19i, (E)-9-Methyl-10-(2-Nitrovinyl)Anthracene], the IC50 came out at 3.26 µM in assay [1], 2.11 µM in assay [6], 3.85 µM in the assay with HG-3 CLL cell line (setting [7]) and 4.4 µM in the assay with PGA-1 CLL cell line (setting [8]). For the same compound, the total apoptosis with HG-3 CLL cells (HG-3, 10 μM) came to 70%; in the assay on PGA-1 CLL cells (PGA-1, 10 μM), 80%. The viability at 1 µM came out at 94.5% in assay [4] and 96.7% in assay [5]. Besides, the viability at 10 µM was 1.95% in assay [4], 19.5% in [5], 0.5 to 8.3% in the assay on HG-3 CLL cell line (CLL cell) and 2.9% in the assay with PGA-1 CLL cell line (CLL cell).
